The results in this text go back to ChEMBL document CHEMBL5512610, “Drug discovery and optimization based on the co-crystal structure of natural product with target” (Eur J Med Chem, 2024).

Where only a bound is given, the exact number is not on record here.

Series [1] is described as follows: Binding affinity to actin (unknown origin) assessed as dissociation constant. Further details: species or system Homo sapiens.
Series [2] concerns the target T1, Cyclin-dependent kinase 9 (Homo sapiens, UniProt P50750). In words: Inhibition of CDK9 (unknown origin).
The nature of series [3]: Cytotoxicity against HUVEC cells assessed as inhibition of cell growth incubated for 72 hrs by MTT assay. The following applies: human. In kind it is toxicity, cell-based.
Series [4] is described as follows: Cytotoxicity against human ARPE-19 cells assessed as cell growth inhibition incubated for 72 hrs by MTT assay. In kind it is toxicity, cell-based. A general note: Tetrazolium assays rely on reduction of a dye to a coloured formazan, in cell work by metabolically active cells.
A further series concerns HepG2. In words: Cytotoxicity against human HepG2 cells assessed as reduction in cell growth. In kind it is functional, cell-based.
The next series relates to Hepatitis C virus. In words: Antiviral activity against Hepatitis C virus genotype 1b infected in human Huh-7 cells assessed as reduction in viral infection. In kind it is functional, organism-based, Hepacivirus hominis.
The test system of a further series is Plasmodium falciparum. Kind of series: Antiplasmodial activity against Plasmodium falciparum K1 assessed as reduction in parasite growth. In kind it is functional, organism-based.
Series [5] relates to MRC5. In words: Antiproliferative activity against human MRC5 cells assessed inhibition of cell growth incubated for 48 hrs by MTT assay. The series is classed as functional, cell-based. The following applies: MRC5, 48 h.
Series [6] can be described thus: Oral bioavailability in mouse. The following applies: in vivo. In kind it is ADME, organism-based.
For a further series, the system named is A549. In words: Growth inhibition of human A549 cells incubated for 72 hrs by MTT assay. The series is classed as functional.
A further series concerns NCI-N87. Kind of series: Antitumor activity against human NCI-N87 cells assessed as reduction in cell growth. In kind it is functional, cell-based.
Series [7] addresses Cyclin-dependent kinase 2 (Homo sapiens, UniProt P24941). In words: Inhibition of CDK2 (unknown origin).
For series [8], the system named is MRC5. In words: Cytotoxicity against human MRC5 cells assessed as reduction in cell viability. In kind it is functional, cell-based.
In series [9] the target is T1, Cyclin-dependent kinase 9. Kind of series: Inhibition of human recombinant CDK9 (773 to 928 residues) expressed in insect cells. Details: species or system Insect cell.

T1 sequence (P50750 whole entry): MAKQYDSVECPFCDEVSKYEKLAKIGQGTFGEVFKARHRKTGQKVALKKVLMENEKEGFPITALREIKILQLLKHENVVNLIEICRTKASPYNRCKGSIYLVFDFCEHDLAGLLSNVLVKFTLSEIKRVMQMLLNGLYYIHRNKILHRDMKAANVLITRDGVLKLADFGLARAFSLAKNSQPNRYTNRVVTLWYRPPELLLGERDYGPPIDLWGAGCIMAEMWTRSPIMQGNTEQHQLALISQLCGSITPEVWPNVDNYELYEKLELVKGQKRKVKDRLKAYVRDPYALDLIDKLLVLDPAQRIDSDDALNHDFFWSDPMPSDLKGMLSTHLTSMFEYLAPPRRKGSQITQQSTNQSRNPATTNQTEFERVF

For orientation: Kd means the constant that tells how readily two partners part at equilibrium. On to `COCCC(=O)NC[C@H](O)[C@H](C)C(=O)NCCC[C@H]1O[C@@]2(CCC[C@@H](CC[C@@H](C)/C=C(\C)[C@@H](C)O)O2)CC[C@@H]1C`, for which the Kd in series [1] was found to be 9 nM.

A word on the IC50: it is the midpoint of a concentration-inhibition curve. For the molecule `Nc1nccc(-c2c[nH]c3ncccc23)n1` [MERIOLIN 1], inhibition in [2] was half-maximal at 10000 nM (IC50).

With `CO[C@H]1/C=C\C=C(/C)C(=O)NC2=C(C)C(=O)C(NCCN(C)C)=C(C[C@@H](C)C[C@H](OC)[C@H](O)[C@@H](C)/C=C(\C)[C@@H]1OC(N)=O)C2=O` (stereo in doubt), the IC50 at 72 h in series [3] and in series [4] was over 20000 nM each time.

Consider `C=CCNC1=C2C[C@@H](C)C[C@H](OC)[C@H](O)[C@@H](C)/C=C(\C)[C@H](OC(N)=O)[C@@H](OC)/C=C\C=C(/C)C(=O)NC(=C(c3ccccc3)C1=O)C2=O` (stereo in doubt), for which the 50% inhibitory concentration (IC50) at 72 h in series [3] and in series [4] was over 20000 nM throughout.

`CC[C@]1(NC(N)=O)[C@@H](N)[C@H](Nc2cccc(C(C)=O)c2)[C@](O)(CO)[C@]1(C)O`: the half-inhibitory concentration (IC50) with HepG2 is over 5600 nM.

For orientation: EC50 means the concentration that produces a half-maximal response. For `CC[C@H]1C[C@H](C)[C@@]2(NC1=O)O[C@@H](C[C@H](O)[C@@H](C)CC/C=C/C=C(\C)[C@@H]1C/C=C/C=C/[C@H](O)[C@H](C)[C@@H](O)[C@@H](CCC(C)=O)C(=O)N[C@@H](C(C)C)C(=O)N[C@@H](Cc3cccc(O)c3)C(=O)N3CCC[C@H](N3)C(=O)O1)[C@H](C)[C@H](O)[C@@H]2C` [SANGLIFEHRIN A], the EC50 with Hepatitis C virus is 87 nM.

As for `CC(=O)c1cccc(N[C@H]2[C@H](N)[C@](C)(NC(=O)N(C)C)[C@@](C)(O)[C@@]2(O)COC(=O)c2c(C)cccc2O)c1`, the IC50 in the series with Plasmodium falciparum stood at 77 nM.

For `CC(=O)c1cccc(N[C@H]2[C@H](N)[C@@](NC(=O)N(C)C)([C@H](C)O)[C@@](C)(O)[C@@]2(O)COC(=O)c2c(C)cccc2O)c1` [PACTAMYCIN], the IC50 was found to be 187 nM in the series on Plasmodium falciparum, 86 nM in the series with HepG2 and 95 nM in the series with MRC5 [5].

In general, bioavailability refers to dose-corrected exposure relative to a reference, in per cent. Turning to `CC(=O)N(C)[C@H](C(=O)N1C[C@H](C)C[C@H]1C(=O)N(C)[C@@H]1C(=O)N[C@@H](CC(C)C)C(=O)N2C[C@H](C)C[C@H]2C(=O)N[C@@H](CC(C)C)C(=O)N(C)[C@@H](C(C)C)C(=O)N2CC(C)C[C@H]2C(=O)N(C)[C@H](CC(C)C)C(=O)NCC(=O)O[C@@H]1C)C(C)C` (stereo partly drawn), in [6], the bioavailability turned out to be 47%.

One may read the GI50 as the concentration giving 50% growth inhibition. High values mean less potent growth inhibition, low ones more potent growth inhibition. The molecule `C=C[C@@H](C)CC[C@@H]1CCC[C@]2(CC[C@H](C)[C@@H](CCCNC(=O)[C@@H](C)[C@@H](O)CNC(=O)CCOC)O2)O1` displayed a 50% growth inhibitory concentration (GI50) with A549 of 15100 nM. In addition, in series [1], the Kd came to 43 nM.

As for `C/C=C/C(=O)C[C@H]1CC[C@H](C)[C@H](CC(=O)NC[C@H](O)[C@H](C)C(=O)NCCC[C@H]2O[C@@]3(CCC[C@@H](CC[C@@H](C)/C=C(\C)[C@@H](C)O)O3)CC[C@@H]2C)O1`, it took 20.4 nM to inhibit growth in the series on A549 by half (GI50). Besides, in series [1], the Kd stood at 7 nM.

For the molecule `CC[C@]1(NC(N)=O)[C@@H](N)[C@H](Nc2cccc(C(C)=O)c2)[C@](O)(COC(=O)c2c(C)cccc2O)[C@]1(C)O`, in the series on HepG2, the IC50 is over 9500 nM.

For the molecule `C=C[C@H](C)CCC[C@@H]1CCC[C@]2(CC[C@H](C)[C@@H](CCCNC(=O)[C@@H](C)[C@@H](O)CNC(=O)C[C@@H]3OC(CC(=O)/C=C/C)CC[C@@H]3C)O2)O1` (stereo partly drawn), the GI50 in the series with A549 stood at 87.1 nM. In addition, the Kd in series [1] was 70 nM.

For `C=CCNC1=C2C[C@@H](C)C[C@H](OC)[C@H](O)[C@@H](C)/C=C(\C)[C@H](OC(N)=O)[C@@H](OC)/C=C\C=C(/C)C(=O)NC(=C(C)C1=O)C2=O` (stereo in doubt), the IC50 at 72 h in [3] and in [4] was over 20000 nM in each case.

In the case of `CO[C@H]1/C=C\C=C(/C)C(=O)NC2=CC(=O)C(NCCN(C)C)=C(C[C@@H](C)C[C@H](OC)[C@H](O)[C@@H](C)/C=C(\C)[C@@H]1OC(N)=O)C2=O` (stereo in doubt) [ALVESPIMYCIN], the EC50 in the series with NCI-N87 stood at 62 nM.

`Nc1nccc(-c2c[nH]c3nccc(O)c23)n1` [MERIOLIN 2]: the IC50 in [2] was 2600 nM; in [7] it was 3100 nM.

Molecule `C=CCC[C@@H]1CCC[C@]2(CC[C@H](C)[C@@H](CCCNC(=O)[C@@H](C)[C@@H](O)CNC(=O)C[C@@H]3OC(CC(=O)/C=C/C)CC[C@@H]3C)O2)O1` (stereo partly drawn) returned a GI50 with A549 of 323 nM. The Kd in [1] was 1500 nM.

Consider `CC(=O)c1cccc(N[C@H]2[C@H](N)[C@](C)(NC(=O)N(C)C)[C@@](C)(O)[C@@]2(O)CO)c1`, for which, in the series on Plasmodium falciparum, the IC50 turned out to be 62 nM.

Take `C=CCC1CC[C@H](C)[C@H](CC(=O)NC[C@H](O)[C@H](C)C(=O)NCCC[C@H]2O[C@@]3(CCC[C@@H](CC[C@H](C)C=C)O3)CC[C@@H]2C)O1` (stereo partly drawn): the GI50 with A549 was 11200 nM. In series [1], the Kd turned out to be 39 nM.

For `CC[C@]1(NC(=O)N(C)C)[C@@H](N)[C@H](Nc2cccc(C(C)=O)c2)[C@](O)(CO)[C@]1(C)O`, in the series with MRC5 [8], the IC50 came to 5.6 nM.

In [6], `CC(=O)N(C)[C@H](C(=O)N1C[C@H](C)C[C@H]1C(=O)N(C)[C@@H]1C(=O)N[C@@H](CC(C)C)C(=O)N2C[C@H](C)C[C@H]2C(=O)N[C@@H](CC(C)C)C(=O)N(C)[C@@H](C(C)C)C(=O)N2CC(C3CCCCC3)C[C@H]2C(=O)N(C)[C@H](CC(C)C)C(=O)NCC(=O)O[C@@H]1C)C(C)C` (stereo partly drawn) showed a bioavailability of 89%.

On to `Nc1nccc(-c2c3cccnc3n3c(N)nccc23)n1`, for which the IC50 in [9] stood at 26 nM.
